Experiment [1] addresses T1, High affinity choline transporter 1 (Homo sapiens, UniProt Q9GZV3).
T1 sequence (Q9GZV3 whole entry): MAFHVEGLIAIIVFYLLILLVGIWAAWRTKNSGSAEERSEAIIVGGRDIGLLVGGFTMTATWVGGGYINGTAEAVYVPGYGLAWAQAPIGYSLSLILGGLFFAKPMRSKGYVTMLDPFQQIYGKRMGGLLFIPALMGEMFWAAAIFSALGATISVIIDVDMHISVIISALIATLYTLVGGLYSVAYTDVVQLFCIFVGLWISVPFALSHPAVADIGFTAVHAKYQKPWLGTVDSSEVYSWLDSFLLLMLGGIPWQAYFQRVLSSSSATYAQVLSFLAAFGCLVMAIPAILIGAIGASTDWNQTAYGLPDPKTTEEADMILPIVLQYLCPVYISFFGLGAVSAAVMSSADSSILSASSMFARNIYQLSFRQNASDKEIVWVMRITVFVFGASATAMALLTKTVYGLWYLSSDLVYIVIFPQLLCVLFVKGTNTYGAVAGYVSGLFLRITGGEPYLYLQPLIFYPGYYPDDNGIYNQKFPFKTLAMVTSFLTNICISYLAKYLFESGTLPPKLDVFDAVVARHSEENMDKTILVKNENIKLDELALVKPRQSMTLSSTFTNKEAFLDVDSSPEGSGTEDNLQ
The experiment can be described thus: human choline transporter blockers, potency – cell-based, 5-point CRC, membrane potential dye, dose response (AID 504840). It is filed as functional.

For experiment [2], the target named is T1, High affinity choline transporter 1. The experiment can be described thus: human choline transporter blockers, potency – cell-based, 10-point CRC, membrane potential dye, dose response (AID 588401).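 Also: membrane potential dye fluorescence of choline-evoked depolarization via CHT.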 The format is functional.
Experiment [3] deals with Hepatocyte nuclear factor 4-alpha (Homo sapiens, UniProt P41235). It is filed as functional, cell-based.
Hepatocyte nuclear factor 4-alpha, sequence (P41235 whole entry): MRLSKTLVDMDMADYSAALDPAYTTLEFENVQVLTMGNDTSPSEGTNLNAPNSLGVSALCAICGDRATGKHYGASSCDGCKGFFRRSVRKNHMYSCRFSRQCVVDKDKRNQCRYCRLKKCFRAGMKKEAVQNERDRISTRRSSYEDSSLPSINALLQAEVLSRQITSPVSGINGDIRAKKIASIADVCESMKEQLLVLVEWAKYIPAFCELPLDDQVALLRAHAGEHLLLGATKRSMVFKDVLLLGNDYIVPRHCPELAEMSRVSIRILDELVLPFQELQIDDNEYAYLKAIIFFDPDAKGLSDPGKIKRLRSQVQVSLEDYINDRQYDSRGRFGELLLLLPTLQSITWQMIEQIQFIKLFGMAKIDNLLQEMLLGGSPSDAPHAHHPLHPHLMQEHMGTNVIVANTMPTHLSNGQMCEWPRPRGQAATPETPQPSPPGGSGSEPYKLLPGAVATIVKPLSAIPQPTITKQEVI
Experiment [4] deals with FAD-linked sulfhydryl oxidase ALR (Homo sapiens, UniProt P55789). In words: ALR-catalysed DTT oxidation blockers – biochemical, H2O2 detection, luminescence, cherry-pick, dose response (AID 493248).
FAD-linked sulfhydryl oxidase ALR, sequence (P55789 whole entry): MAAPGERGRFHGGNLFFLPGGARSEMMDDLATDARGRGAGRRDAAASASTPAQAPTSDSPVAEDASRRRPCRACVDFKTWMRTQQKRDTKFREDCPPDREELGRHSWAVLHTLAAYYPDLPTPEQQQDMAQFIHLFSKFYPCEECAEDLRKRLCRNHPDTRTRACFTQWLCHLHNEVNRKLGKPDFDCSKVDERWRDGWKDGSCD
Experiment [5] has as its target T2, DNA repair protein RAD52 homolog (Homo sapiens, UniProt P43351).
T2 sequence (P43351 whole entry): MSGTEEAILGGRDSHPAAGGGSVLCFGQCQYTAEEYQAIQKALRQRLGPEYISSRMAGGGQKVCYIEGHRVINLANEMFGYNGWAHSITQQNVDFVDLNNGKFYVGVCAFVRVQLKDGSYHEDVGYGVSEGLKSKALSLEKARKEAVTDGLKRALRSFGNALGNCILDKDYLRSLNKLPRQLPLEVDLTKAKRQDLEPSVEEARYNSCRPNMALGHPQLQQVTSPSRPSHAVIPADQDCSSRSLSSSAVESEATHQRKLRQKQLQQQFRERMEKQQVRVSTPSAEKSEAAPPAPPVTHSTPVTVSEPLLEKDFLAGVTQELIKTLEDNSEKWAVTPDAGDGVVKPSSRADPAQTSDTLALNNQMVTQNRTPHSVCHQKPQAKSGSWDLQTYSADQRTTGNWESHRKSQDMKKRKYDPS
It is filed as functional, biochemical.

For another experiment, the target named is T3, Protein skinhead-1 (Caenorhabditis elegans, UniProt P34707).
T3 sequence (P34707 whole entry): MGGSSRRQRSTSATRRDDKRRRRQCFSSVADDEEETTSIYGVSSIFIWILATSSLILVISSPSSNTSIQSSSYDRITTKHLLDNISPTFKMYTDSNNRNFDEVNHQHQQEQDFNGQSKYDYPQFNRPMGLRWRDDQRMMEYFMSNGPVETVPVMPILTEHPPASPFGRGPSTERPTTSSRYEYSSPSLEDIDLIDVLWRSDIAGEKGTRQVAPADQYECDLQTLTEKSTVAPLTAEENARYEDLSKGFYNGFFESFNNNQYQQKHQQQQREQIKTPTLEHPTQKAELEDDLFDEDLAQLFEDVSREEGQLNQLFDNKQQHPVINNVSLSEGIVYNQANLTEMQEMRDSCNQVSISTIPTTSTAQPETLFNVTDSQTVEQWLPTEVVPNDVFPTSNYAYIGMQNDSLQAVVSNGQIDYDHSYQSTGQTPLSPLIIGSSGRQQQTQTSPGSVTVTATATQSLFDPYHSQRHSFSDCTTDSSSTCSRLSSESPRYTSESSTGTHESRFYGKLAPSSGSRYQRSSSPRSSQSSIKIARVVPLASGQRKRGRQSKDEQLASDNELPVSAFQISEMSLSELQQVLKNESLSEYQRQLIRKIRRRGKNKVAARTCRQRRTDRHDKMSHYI
It is filed as functional.

Experiment [6] concerns the target DNA repair and recombination protein RAD54-like (Homo sapiens, UniProt Q92698). The experiment can be described thus: RAD54 Holliday junction migration blockers – biochemical, fluorescence, cherry-picked samples, dose series, confirmation (AID 651657). It is filed as functional.
Experiment [7] can be described thus: NIH3T3 cell viability loss – ATP luminescence, mouse fibroblasts, counter-screen, dose response (AID 2010).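 Also: cells exposed to compound for about 90 hours before reading.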 It is filed as functional, cell-based. In general terms: A counterscreen serves to expose hits that act by an unwanted route or on another target.
Experiment [8] can be described thus: Trypanosoma cruzi growth suppression in host cells – NIH3T3 host cells, beta-gal luminescence, confirmation (AID 2044).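 Also: intracellular parasites grown in NIH/3T3 mouse fibroblasts as host cells; luminescent beta-galactosidase reporter signal from transgenic T. cruzi replicating inside host cells; inhibitors lower the luminescence signal.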 The format is functional, cell-based.
The nature of experiment [9]: viability of PTEN-deleted HCT116 cells – cell-based, HCT116 PTEN knockout, dose response (AID 1047).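 Also: HCT116 colon tumor cells with PTEN knocked out; cells exposed to compound for 60 hours before readout; potency for loss of cell viability measured by luminescence.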 It is filed as functional.
For experiment [10], the target named is Heat shock protein HSP 90-alpha (Homo sapiens, UniProt P07900). It is filed as functional, organism-based.
Experiment [11] addresses T4, Interleukin-8 (Homo sapiens, UniProt P10145).
T4 sequence (P10145 whole entry): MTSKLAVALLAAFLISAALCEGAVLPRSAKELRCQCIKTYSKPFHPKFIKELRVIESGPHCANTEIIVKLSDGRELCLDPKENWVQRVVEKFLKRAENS
The experiment can be described thus: Dose Response confirmation of uHTS small molecule hits for cystic fibrosis induced NFkb Inhibitors in a TNFa-induced IL8 counterscreen. To be noted: read-out: IC50_Mean. The format is functional.

The subject of the next experiment is H9c2. The experiment can be described thus: cells. It is filed as functional, cell-based. To be noted: Rattus norvegicus, H9c2, Myocardium.
Experiment [12] concerns the target T4, Interleukin-8. In words: Dose Response confirmation of uHTS small molecule hits for cystic fibrosis induced NFkb Inhibitors in a PAF-induced IL8 counterscreen. It is filed as functional. The settings on record: read-out: IC50_Mean.
Experiment [13] in a line: viability of HCT116 lacking mutant beta-catenin – cell-based, human colon tumor, dose response (AID 1045).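 Also: HCT116 colon tumor cells with beta catenin knocked out; cells exposed to compound for 60 hours.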 It is filed as functional.
A further experiment concerns the target Melanocortin receptor 4 (Homo sapiens, UniProt P32245). The format is functional, cell-based.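 Also: Cell-based assay with luminescence read-out, confirmatory dose-response testing for agonist activity of biased ligands at MC4R; human U2OS cells with tagged receptor and beta-arrestin; potency of agonists that increase receptor coupling to beta-arrestin.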
Experiment [14] is described as follows: activation of miR-122 Renilla sensor silencing – cell-based, Huh7 psiCHECK-miR122, Renilla luciferase, cherry-picked, dose response (AID 651956).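 Also: huh7 hepatoma cells stably carrying a psiCHECK-2 miR-122 sensor plasmid; renilla luciferase signal reporting endogenous miR-122 activity after 48 h compound exposure.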 It is filed as functional.
In experiment [15] the target is Photoreceptor-specific nuclear receptor (Homo sapiens, UniProt Q9Y5X4). It is filed as functional, cell-based.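 Also: CHO-S cells with Gal4-NCOR and VP16-NR2E3 two-hybrid luciferase reporter.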
Photoreceptor-specific nuclear receptor, sequence (Q9Y5X4 whole entry, the tested form may be a part): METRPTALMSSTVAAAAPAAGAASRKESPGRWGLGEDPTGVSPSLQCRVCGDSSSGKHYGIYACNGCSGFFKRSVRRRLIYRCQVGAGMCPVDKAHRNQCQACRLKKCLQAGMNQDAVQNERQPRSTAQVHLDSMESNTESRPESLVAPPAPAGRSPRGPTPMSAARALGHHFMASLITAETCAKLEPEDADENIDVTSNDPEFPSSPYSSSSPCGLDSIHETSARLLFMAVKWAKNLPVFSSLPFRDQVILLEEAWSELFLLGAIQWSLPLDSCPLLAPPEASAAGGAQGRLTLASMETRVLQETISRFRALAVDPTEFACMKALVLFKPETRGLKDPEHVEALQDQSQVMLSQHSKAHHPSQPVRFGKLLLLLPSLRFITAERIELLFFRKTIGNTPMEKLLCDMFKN
The target in another experiment is Large T antigen (Simian virus 40, UniProt P03070). The format is functional, Betapolyomavirus macacae.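 Also: Confirmatory-stage PubChem screen for compounds that inhibit SV40 T antigen.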
Large T antigen, sequence (P03070 whole entry): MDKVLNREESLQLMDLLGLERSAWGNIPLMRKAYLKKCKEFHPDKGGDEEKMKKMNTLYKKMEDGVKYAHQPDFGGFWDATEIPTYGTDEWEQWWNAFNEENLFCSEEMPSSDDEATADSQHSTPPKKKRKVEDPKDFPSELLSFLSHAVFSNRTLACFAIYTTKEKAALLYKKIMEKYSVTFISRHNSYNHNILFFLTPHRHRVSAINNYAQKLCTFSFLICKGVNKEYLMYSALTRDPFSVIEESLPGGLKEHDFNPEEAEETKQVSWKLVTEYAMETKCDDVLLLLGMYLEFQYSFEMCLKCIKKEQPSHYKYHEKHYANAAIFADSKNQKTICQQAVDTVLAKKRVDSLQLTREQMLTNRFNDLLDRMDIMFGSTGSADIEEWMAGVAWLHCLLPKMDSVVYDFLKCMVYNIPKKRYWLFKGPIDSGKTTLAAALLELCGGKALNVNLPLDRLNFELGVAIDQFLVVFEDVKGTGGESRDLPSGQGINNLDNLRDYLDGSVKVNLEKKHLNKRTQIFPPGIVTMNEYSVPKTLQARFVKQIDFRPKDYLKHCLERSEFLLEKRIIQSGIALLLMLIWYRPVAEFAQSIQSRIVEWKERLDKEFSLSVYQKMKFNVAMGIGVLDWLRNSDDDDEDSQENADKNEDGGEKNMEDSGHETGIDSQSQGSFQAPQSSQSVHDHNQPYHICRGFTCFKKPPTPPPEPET
Experiment [16] addresses T5, Sentrin-specific protease 1 (Homo sapiens, UniProt Q9P0U3).
T5 sequence (Q9P0U3 whole entry): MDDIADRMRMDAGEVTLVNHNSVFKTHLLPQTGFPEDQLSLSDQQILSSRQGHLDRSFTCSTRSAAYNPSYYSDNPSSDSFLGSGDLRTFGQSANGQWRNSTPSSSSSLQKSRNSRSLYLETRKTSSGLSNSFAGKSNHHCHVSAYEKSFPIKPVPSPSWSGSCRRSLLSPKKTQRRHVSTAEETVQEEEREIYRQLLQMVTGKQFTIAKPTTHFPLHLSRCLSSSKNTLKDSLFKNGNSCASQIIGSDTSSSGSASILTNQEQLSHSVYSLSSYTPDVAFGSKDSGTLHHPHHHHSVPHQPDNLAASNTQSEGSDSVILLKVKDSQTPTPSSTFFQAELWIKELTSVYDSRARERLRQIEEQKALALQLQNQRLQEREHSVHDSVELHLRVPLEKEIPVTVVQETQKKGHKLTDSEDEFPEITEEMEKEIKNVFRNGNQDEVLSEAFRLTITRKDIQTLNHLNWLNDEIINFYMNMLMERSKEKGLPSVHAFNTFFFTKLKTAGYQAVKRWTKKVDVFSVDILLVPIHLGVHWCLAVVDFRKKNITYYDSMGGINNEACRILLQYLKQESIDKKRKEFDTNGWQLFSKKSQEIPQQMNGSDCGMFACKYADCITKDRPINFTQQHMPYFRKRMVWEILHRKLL
The experiment can be described thus: Dose response confirmation of small molecule inhibitors of the catalytic domain of the SUMO protease, SENP1 in a FRET assay. The settings on record: read-out: IC50_Mean. It is filed as functional.

Experiment [17] deals with T5, Sentrin-specific protease 1. The experiment can be described thus: SENP1 catalytic domain blockers, concentration series – biochemical, kinetic FRET, dose response (AID 651697). To be noted: read-out: IC50_Mean. It is filed as functional.
Experiment [18] addresses Ras and Rab interactor 1/Tyrosine-protein kinase ABL1 (Homo sapiens, UniProt P00519+Q13671). It is filed as functional.
Experiment [19] is described as follows: mitochondrial function rescue without frataxin homolog – Friedreich's ataxia, plus single-dose screen, dose response (AID 1465).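 Also: yeast depleted of Yfh1p frataxin homolog grown on glycerol needing respiration; WST-1 tetrazolium dye reduction as measure of cellular dehydrogenase metabolic activity.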 The format is functional.
Experiment [20] in a line: bead-based luminescence quenchers, dual-tagged ARNT – biochemical, AlphaScreen, cherry-pick, artefact control for ARNT-TACC3 interaction inhibitor project, dose response (AID 651705).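 Also: AlphaScreen bead proximity signal that flags compounds interfering with the detection technology; potency reflects signal decrease which marks the compound as an assay artifact.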 It is filed as functional. A general note: Alpha assays give light when donor and acceptor beads are brought close together.
For a further experiment, the target named is Beta Lactamase (Pseudomonas aeruginosa, UniProt Q932Y6). The experiment can be described thus: BLA reporter interference, concentration series – BLA reporter cells, FRET fluorescence, artefact control for NOD2-RIPK2 interaction inhibitor project, dose response (AID 651552). It is filed as functional, cell-based.
The nature of experiment [21]: Fluorescence-based cell-based high throughput dose response assay for inhibitors of the interaction of nucleotide-binding oligomerization domain containing 2 (NOD2) and the receptor-interacting serine-threonine kinase 2 (RIPK2). The format is functional. To be noted: Homo sapiens.

The source made the active and inactive calls.

DNA repair and recombination protein RAD54-like, sequence (Q92698 whole entry): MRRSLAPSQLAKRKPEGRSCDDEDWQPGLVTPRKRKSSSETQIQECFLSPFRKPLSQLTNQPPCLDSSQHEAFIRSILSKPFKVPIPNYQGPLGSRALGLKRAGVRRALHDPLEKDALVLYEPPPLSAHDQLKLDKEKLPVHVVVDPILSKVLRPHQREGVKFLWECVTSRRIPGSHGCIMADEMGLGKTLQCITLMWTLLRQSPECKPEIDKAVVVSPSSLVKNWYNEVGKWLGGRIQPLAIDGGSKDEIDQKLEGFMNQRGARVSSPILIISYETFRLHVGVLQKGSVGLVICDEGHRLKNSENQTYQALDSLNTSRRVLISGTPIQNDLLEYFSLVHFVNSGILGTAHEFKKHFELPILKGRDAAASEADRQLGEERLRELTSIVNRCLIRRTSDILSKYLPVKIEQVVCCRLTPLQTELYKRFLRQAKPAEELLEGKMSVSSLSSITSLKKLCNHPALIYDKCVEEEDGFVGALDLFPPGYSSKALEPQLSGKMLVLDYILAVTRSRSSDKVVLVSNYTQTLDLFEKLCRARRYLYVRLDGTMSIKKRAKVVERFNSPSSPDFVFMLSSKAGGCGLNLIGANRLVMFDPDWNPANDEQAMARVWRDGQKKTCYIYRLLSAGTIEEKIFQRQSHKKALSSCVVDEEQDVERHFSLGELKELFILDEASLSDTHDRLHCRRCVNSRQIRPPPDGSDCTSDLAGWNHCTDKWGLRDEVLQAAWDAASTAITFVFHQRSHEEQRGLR
Melanocortin receptor 4, sequence (P32245 whole entry): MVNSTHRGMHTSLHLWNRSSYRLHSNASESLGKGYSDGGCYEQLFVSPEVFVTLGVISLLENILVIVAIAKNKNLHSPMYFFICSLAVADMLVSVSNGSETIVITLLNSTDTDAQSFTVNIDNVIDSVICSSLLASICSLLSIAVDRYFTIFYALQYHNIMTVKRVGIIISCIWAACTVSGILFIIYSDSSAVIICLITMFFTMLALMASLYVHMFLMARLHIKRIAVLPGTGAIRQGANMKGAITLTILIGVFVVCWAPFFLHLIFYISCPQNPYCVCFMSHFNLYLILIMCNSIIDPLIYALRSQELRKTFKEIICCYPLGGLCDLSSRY
Ras and Rab interactor 1/Tyrosine-protein kinase ABL1, sequence (P00519 whole entry): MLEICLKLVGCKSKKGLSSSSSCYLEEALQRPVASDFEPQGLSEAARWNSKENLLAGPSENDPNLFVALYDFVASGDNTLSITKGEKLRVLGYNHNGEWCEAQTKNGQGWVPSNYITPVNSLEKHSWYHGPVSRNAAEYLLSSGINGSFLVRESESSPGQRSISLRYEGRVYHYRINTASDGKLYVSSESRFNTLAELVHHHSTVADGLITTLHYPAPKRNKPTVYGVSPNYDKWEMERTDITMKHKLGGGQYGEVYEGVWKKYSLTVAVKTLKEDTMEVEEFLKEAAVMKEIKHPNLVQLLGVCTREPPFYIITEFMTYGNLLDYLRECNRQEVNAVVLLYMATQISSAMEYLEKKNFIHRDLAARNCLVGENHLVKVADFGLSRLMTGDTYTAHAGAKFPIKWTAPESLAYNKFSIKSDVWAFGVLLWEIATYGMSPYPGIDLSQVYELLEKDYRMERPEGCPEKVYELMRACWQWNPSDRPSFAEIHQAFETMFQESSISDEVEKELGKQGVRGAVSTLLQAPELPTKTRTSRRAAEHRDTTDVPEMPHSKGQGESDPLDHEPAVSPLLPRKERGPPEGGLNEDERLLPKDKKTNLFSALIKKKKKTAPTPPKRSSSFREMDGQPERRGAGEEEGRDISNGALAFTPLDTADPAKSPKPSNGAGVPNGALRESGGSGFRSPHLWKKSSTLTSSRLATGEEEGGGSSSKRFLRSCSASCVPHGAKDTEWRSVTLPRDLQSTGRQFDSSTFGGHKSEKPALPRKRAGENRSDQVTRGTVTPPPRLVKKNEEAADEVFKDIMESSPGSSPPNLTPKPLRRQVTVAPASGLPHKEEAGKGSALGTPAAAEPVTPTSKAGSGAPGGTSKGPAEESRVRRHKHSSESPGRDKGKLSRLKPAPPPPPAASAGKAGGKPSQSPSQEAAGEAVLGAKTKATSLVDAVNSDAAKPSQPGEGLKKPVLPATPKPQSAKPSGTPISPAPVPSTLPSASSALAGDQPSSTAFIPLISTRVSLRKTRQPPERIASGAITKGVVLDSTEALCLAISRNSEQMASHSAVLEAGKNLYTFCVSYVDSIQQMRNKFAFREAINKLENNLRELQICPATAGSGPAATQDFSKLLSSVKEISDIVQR
Ras and Rab interactor 1/Tyrosine-protein kinase ABL1, sequence (Q13671 whole entry): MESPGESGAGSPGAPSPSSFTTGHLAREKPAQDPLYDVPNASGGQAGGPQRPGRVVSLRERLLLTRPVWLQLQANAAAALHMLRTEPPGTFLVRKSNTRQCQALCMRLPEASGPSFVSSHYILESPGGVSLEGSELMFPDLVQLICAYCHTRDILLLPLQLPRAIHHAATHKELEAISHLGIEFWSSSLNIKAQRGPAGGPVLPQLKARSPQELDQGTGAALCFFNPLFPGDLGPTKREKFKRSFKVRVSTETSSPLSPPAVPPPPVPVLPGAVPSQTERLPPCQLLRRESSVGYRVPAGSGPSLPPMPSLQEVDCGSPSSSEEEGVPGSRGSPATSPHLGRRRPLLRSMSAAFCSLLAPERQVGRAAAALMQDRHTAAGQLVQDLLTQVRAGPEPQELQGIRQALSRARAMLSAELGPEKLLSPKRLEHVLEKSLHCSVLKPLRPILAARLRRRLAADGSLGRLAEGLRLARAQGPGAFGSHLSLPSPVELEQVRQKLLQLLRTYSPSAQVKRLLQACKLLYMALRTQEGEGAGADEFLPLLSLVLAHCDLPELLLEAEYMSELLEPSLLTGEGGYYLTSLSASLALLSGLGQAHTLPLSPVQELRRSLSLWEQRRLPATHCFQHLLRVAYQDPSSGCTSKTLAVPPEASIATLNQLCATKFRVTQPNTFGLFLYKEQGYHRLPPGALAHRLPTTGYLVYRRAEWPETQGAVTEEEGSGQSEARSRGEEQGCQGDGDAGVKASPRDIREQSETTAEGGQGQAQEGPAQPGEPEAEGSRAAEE

For the molecule `Cc1ccc(C(C)NC(=O)C2CCCC2)cc1C` (stereo not given), the results for the IC50 in experiment [1] and in [2] were 8.58 µM (active) and 6.48 µM (active), respectively.
Consider `O=C(/C=C/c1ccc2c(c1)OCCCO2)c1ccccc1O`, for which the IC50 in [3] was 5.6 µM (active).
For `Oc1cccc(Nc2c3ccccc3nc3ccccc23)c1`, the AC50 (usually the midpoint of the concentration-response curve, whichever way the signal moves) in experiment [4] was 2.66 µM (active); in [5], 3.09 µM (active); in experiment [6], 4.49 µM (active). The IC50 on Protein skinhead-1 is > 100 µM (inactive). Also, the EC50 – broadly, the concentration needed to bring the measured effect to its halfway point – in experiment [7] is 21.8 µM (active); in experiment [8] it was 0.672 µM (active).
`CCOc1ccc(NCc2cc3c(C(C)(C)C)nn(-c4ccccc4)c3nc2O)cc1`: the EC50 in experiment [9] is 9.36 µM (active); in experiment [13] it was 13.5 µM (active). In [10], the AC50 was 8.84 µM (active). For the same molecule, the IC50 at Interleukin-8 [11] was > 79 µM (inactive); with H9c2, 24.2 µM (active); at Interleukin-8 [12], 0.628 µM (active).
Turning to `Cc1ccc(O)c(C(=O)/C=C/c2ccc3c(c2)OCCCO3)c1`, on Melanocortin receptor 4, the EC50 was > 89.2 µM (inactive). The IC50 in [3] is 6.11 µM (active).
In the case of `Cc1ccc(-n2ncc(C(=O)Nc3cc(Cl)ccc3C)c2C2CCNCC2)cc1C`, the AC50 in experiment [14] is 51.5 µM (active).
With `Cc1ccc(S(=O)(=O)N2[C@@H](c3ccc(Cl)cc3)C(C(=O)O)=CC[C@H]2c2ccc(C(C)C)cc2)cc1`, the AC50 in experiment [4] was 10.3 µM (active). In addition, the figures for the IC50 (in [15]; on Large T antigen) were 5.56 µM (active) and 60.4 µM (active), respectively.
Turning to `O=C(O)CN1C(=O)S/C(=C2/C(=O)Nc3ccccc32)C1=O`, the IC50 in experiment [16] was 3.7 µM (active); in experiment [17] it was 13.7 µM (active).
For the molecule `COc1ncccc1-c1cc2nc(NCCCN(C)C)n(C)c(=O)c2s1`, the concentration at half-maximal activity (AC50) in [5] is 4.91 µM (active); in experiment [6] it was 12.9 µM (active).
`Oc1nccc(N/N=C/c2ccccc2)n1`: the IC50 in [18] was > 73.5 µM (inactive).
In the case of `Sc1nnc(-c2ccncc2)n1/N=C/C(Cl)=C\c1ccccc1`, the EC50 in [19] was > 100 µM (active). For the same molecule, the values for the IC50 on Interleukin-8 [11] and on Interleukin-8 [12] were > 79 µM (inactive) and 3.4 µM (active), respectively.
Consider `C[N+]1(C)CCOC(O)(c2ccc(-c3ccc(C4(O)C[N+](C)(C)CCO4)cc3)cc2)C1` (stereo not given), for which the figures for the IC50 in experiment [1] and in experiment [2] were 0.296 µM (active) and 0.127 µM (active), respectively. Besides, the AC50 in [5] is 7.78 µM (active).
For the molecule `O=C(COc1nsnc1N1CCOCC1)N/N=C/c1ccccc1O`, the results for the EC50 in experiment [9] and in [13] were 28.5 µM (active) and 23.7 µM (active), respectively. Further, the AC50 in [20] is 107 µM (active).
Take `COc1cccc(-c2nc(SC)nc3sc(C(=O)NC(C)(C)C)c(N)c23)c1`: the values for the IC50 in [16] and in experiment [17] were 15.2 µM (active) and 19.1 µM (active), respectively.
Consider `C[C@@H]1CN([C@H](C)CO)S(=O)(=O)c2ccc(C3=CCCC3)cc2O[C@@H]1CN(C)C(=O)c1cnccn1`, for which the AC50 in experiment [14] was 13.5 µM (active).
With `CCCCCN1C(=O)c2cc(OC)ccc2[C@@]2(C(=O)OCC)Cc3cc(Cl)ccc3[C@@H]12`, the IC50 was 18.8 µM (inactive) on Beta Lactamase and 2.04 µM (active) in experiment [21].

These data come from ChEMBL document CHEMBL1201862, “PubChem BioAssay data set” (2004).
